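The compound was tested at five concentrations on cells cultured in 96-well plates, with a 48-hour exposure period. Abbreviation: GI50, concentration required for 50% inhibition of growth. At the TGI there is no net growth.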
Columns and labels:
Experiment in all cases: inhibition of tumour cell growth, NCI panel, 48 h
[1] = tested on: 786-0 renal
[2] = tested on: A498 renal
[3] = tested on: A549 NSCLC
[4] = tested on: ACHN renal
[5] = tested on: BT-549 breast
[6] = tested on: CAKI-1 renal
[7] = tested on: CCRF-CEM leukemia
[8] = tested on: COLO 205 colon
[9] = tested on: DU-145 prostate
[10] = tested on: EKVX NSCLC
[11] = tested on: HCC-2998 colon
[12] = tested on: HCT-116 colon
[13] = tested on: HCT-15 colon
[14] = tested on: HL-60(TB) leukemia
[15] = tested on: HOP-62 NSCLC
[16] = tested on: HOP-92 NSCLC
[17] = tested on: HS 578T breast
[18] = tested on: HT29 colon
[19] = tested on: IGROV1 ovarian
[20] = tested on: KM12 colon
[21] = tested on: LOX IMVI melanoma
[22] = tested on: M14 melanoma
[23] = tested on: MCF7 breast
[24] = tested on: MDA-MB-231 breast
[25] = tested on: MDA-MB-435
[26] = tested on: MOLT-4 leukemia
[27] = tested on: NCI-H23 lung
[28] = tested on: NCI-H460 lung
[29] = tested on: NCI-H522 lung
[30] = tested on: NCI/ADR-RES ovarian
[31] = tested on: OVCAR-3 ovarian
[32] = tested on: OVCAR-5 ovarian
[33] = tested on: OVCAR-8 ovarian
[34] = tested on: PC-3 prostate
[35] = tested on: RPMI-8226 leukemia
[36] = tested on: RXF 393 renal
[37] = tested on: SF-268 CNS
[38] = tested on: SF-295 CNS
[39] = tested on: SF-539 CNS
[40] = tested on: SK-MEL-2 melanoma
[41] = tested on: SK-MEL-28 melanoma
[42] = tested on: SK-MEL-5 melanoma
[43] = tested on: SK-OV-3 ovarian
[44] = tested on: SN12C renal
[45] = tested on: SNB-19 CNS
[46] = tested on: SR leukemia
[47] = tested on: SW-620 colon
[48] = tested on: T-47D breast
[49] = tested on: TK-10 renal
[50] = tested on: U251 CNS
[51] = tested on: UACC-257 melanoma
[52] = tested on: UACC-62 melanoma
[53] = tested on: UO-31 renal
[54] = tested on: K-562 leukemia
[55] = tested on: MALME-3M melanoma
[56] = tested on: OVCAR-4 ovarian
[57] = tested on: SNB-75 CNS

SMILES: O=C(O)c1ccc(N(/C=C/C(=O)C(F)(F)F)Cc2ccc(Cl)cc2)cc1
- GI50 [1]: 31.4 µM
- TGI [1]: > 100 µM
- GI50 [2]: 22 µM
- TGI [2]: 62.9 µM
- GI50 [3]: 34.9 µM
- TGI [3]: > 100 µM
- GI50 [4]: 24.4 µM
- TGI [4]: 66 µM
- GI50 [5]: 38.7 µM
- TGI [5]: 67 µM
- GI50 [6]: 34.6 µM
- TGI [6]: > 100 µM
- GI50 [7]: 25.8 µM
- TGI [7]: > 100 µM
- GI50 [8]: 36.7 µM
- TGI [8]: > 100 µM
- GI50 [9]: 22.4 µM
- TGI [9]: 62.1 µM
- GI50 [10]: 19.6 µM
- TGI [10]: 47.9 µM
- GI50 [11]: 19.8 µM
- TGI [11]: 44.3 µM
- GI50 [12]: 20.5 µM
- TGI [12]: 54.8 µM
- GI50 [13]: 21.4 µM
- TGI [13]: 59.7 µM
- GI50 [14]: 40.2 µM
- TGI [14]: > 100 µM
- GI50 [15]: 24.5 µM
- TGI [15]: 65.3 µM
- GI50 [16]: 19.5 µM
- TGI [16]: 82.4 µM
- GI50 [17]: 26.4 µM
- TGI [17]: 84.7 µM
- GI50 [18]: 37 µM
- TGI [18]: > 100 µM
- GI50 [19]: 20.3 µM
- TGI [19]: 48.9 µM
- GI50 [20]: 23.2 µM
- TGI [20]: 59.9 µM
- GI50 [21]: 21.4 µM
- TGI [21]: 51.8 µM
- GI50 [22]: 22.7 µM
- TGI [22]: 62.7 µM
- GI50 [23]: > 100 µM
- TGI [23]: > 100 µM
- GI50 [24]: 18.6 µM
- TGI [24]: 48.2 µM
- GI50 [25]: 35.5 µM
- TGI [25]: > 100 µM
- GI50 [26]: 34.8 µM
- TGI [26]: > 100 µM
- GI50 [27]: 24.7 µM
- TGI [27]: 64.8 µM
- GI50 [28]: > 100 µM
- TGI [28]: > 100 µM
- GI50 [29]: 19.9 µM
- TGI [29]: 61.9 µM
- GI50 [30]: 23 µM
- TGI [30]: 68.4 µM
- GI50 [31]: 25.8 µM
- TGI [31]: 72.5 µM
- GI50 [32]: 44.6 µM
- TGI [32]: > 100 µM
- GI50 [33]: 26.1 µM
- TGI [33]: 78.4 µM
- GI50 [34]: 37.9 µM
- TGI [34]: > 100 µM
- GI50 [35]: 29.8 µM
- TGI [35]: > 100 µM
- GI50 [36]: 46.3 µM
- TGI [36]: > 100 µM
- GI50 [37]: > 100 µM
- TGI [37]: > 100 µM
- GI50 [38]: 26.6 µM
- TGI [38]: 67 µM
- GI50 [39]: 19 µM
- TGI [39]: 42.1 µM
- GI50 [40]: 19.1 µM
- TGI [40]: 53.3 µM
- GI50 [41]: 32.9 µM
- TGI [41]: 84 µM
- GI50 [42]: 25 µM
- TGI [42]: 81.1 µM
- GI50 [43]: 35.5 µM
- TGI [43]: > 100 µM
- GI50 [44]: 32.3 µM
- TGI [44]: > 100 µM
- GI50 [45]: 47.9 µM
- TGI [45]: > 100 µM
- GI50 [46]: 27.3 µM
- TGI [46]: 71.5 µM
- GI50 [47]: 35.9 µM
- TGI [47]: > 100 µM
- GI50 [48]: 28.5 µM
- TGI [48]: 93.9 µM
- GI50 [49]: 27 µM
- TGI [49]: 60.8 µM
- GI50 [50]: 26.2 µM
- TGI [50]: 86.7 µM
- GI50 [51]: 30.7 µM
- TGI [51]: 86.8 µM
- GI50 [52]: 24 µM
- TGI [52]: 66.3 µM
- GI50 [53]: 1.19 µM
- TGI [53]: 15.7 µM

SMILES: Cc1nc2ccc(F)cc2c2c1CCS2
- TGI [1]: > 100 µM
- TGI [2]: > 100 µM
- TGI [3]: > 100 µM
- TGI [4]: > 100 µM
- TGI [5]: > 100 µM
- TGI [7]: > 100 µM
- TGI [8]: > 100 µM
- TGI [9]: > 100 µM
- TGI [10]: > 100 µM
- TGI [11]: > 100 µM
- TGI [12]: > 100 µM
- TGI [13]: > 100 µM
- TGI [14]: 47.6 µM
- TGI [15]: > 100 µM
- TGI [16]: > 100 µM
- TGI [17]: > 100 µM
- TGI [18]: > 100 µM
- TGI [19]: > 100 µM
- TGI [54]: 94.5 µM
- TGI [20]: > 100 µM
- TGI [21]: > 100 µM
- TGI [55]: > 100 µM
- TGI [23]: > 100 µM
- TGI [24]: 86.9 µM
- TGI [25]: > 100 µM
- TGI [26]: > 100 µM
- TGI [27]: > 100 µM
- TGI [28]: > 100 µM
- TGI [29]: > 100 µM
- TGI [30]: > 100 µM
- TGI [31]: > 100 µM
- TGI [56]: > 100 µM
- TGI [33]: > 100 µM
- TGI [34]: > 100 µM
- TGI [35]: > 100 µM
- TGI [36]: 73.9 µM
- TGI [37]: > 100 µM
- TGI [38]: > 100 µM
- TGI [39]: > 100 µM
- TGI [41]: > 100 µM
- TGI [42]: > 100 µM
- TGI [45]: > 100 µM
- TGI [57]: > 100 µM
- TGI [46]: > 100 µM
- TGI [47]: > 100 µM
- TGI [48]: > 100 µM
- TGI [49]: > 100 µM
- TGI [50]: > 100 µM
- TGI [51]: > 100 µM
- TGI [52]: > 100 µM
- TGI [53]: > 100 µM

Source: PubChem BioAssay (NCI)
